Marks after values point to notes of the source that are not given here.
How the values were obtained:
[1] = tested on: high-fat diet-induced DIO mice; assay: Oral glucose tolerance test (OGTT) in high-fat diet-induced DIO mice; format: in vivo
From the text: Normal male C57BL6/J mice (8-9 weeks old) were housed 3-4 per cage and fed a high-fat, high-cholesterol, high-fructose diet (D09100310, Research Diets) for 13 weeks with unrestricted access to water. After 13 weeks of high-fat, high-cholesterol, high-fructose diet feeding, the mice were randomly divided into 5 groups based on body weight and blood glucose levels, with age-matched mice fed a normal diet serving as the normal blank control group, with 6 mice in each group. Under fasting conditions (16 hours), the test compound 169 was administered via oral gavage at different concentrations of 0.03, 0.1, 0.6, and 3 mg/kg, while the normal blank control and model control groups were given the vehicle (15% solutol + 85% DDW solution), with a dosing volume of 10 mL/kg. On the day of administration, blood glucose levels in mice were measured. 2 hours after oral gavage administration, each group was given 2 g/kg of glucose orally. Blood glucose levels were measured at 0, 15, 30, 60, 90, 120, and 150 minutes after glucose administration.
Blood glucose levels were measured at 0, 15, 30, 60, and 120 minutes after glucose administration. […]
Note: BG0, BG15, BG30, BG60, BG90, and BG120 represent the blood glucose levels at 0, 15, 30, 60, 90, and 120 minutes after glucose administration, respectively.
Data were expressed as mean ± standard deviation. One-way ANOVA was employed for statistical analysis, with p < 0.05 considered statistically significant.

[2] = tested on: normal male C57BL6/J mice; assay: In vivo hypoglycemia risk assay in fasted normal C57BL6/J mice; settings: for Blood Glucose / AUC 0-120 minutes: fasted 16 hours; for AUC 0-120 minutes: blood glucose AUC
Protocol: The blank control group was orally administered with the vehicle control (2% DMO + 15% solutol + 83% DDW solution), with a dosing volume of 10 mL/kg. […] […] Data were expressed as mean ± standard deviation. One-way ANOVA was employed for statistical analysis, with p < 0.05 considered statistically significant.

## COc1ccc(F)c(N2CCC(c3oc4cc([C@@H](CC(=O)O)C5CC5)ccc4c3-c3ccc(C(C)(C)C)cc3)CC2)c1 [Compound 169]
[1]; 0.03 mg/kg oral gavage, 0 minutes after glucose (2 g/kg)
  Blood Glucose: 10.78 ± 0.81 mmol/L
[1]; 0.03 mg/kg oral gavage, 15 minutes after glucose
  Blood Glucose: 20.08 ± 2.94 mmol/L
[1]; 0.03 mg/kg oral gavage, 30 minutes after glucose
  Blood Glucose: 16.63 ± 3.66 mmol/L
[1]; 0.03 mg/kg oral gavage, 60 minutes after glucose
  Blood Glucose: 14.62 ± 3.62 mmol/L
[1]; 0.03 mg/kg oral gavage, 90 minutes after glucose
  Blood Glucose: 14.92 ± 2.34 mmol/L
[1]; 0.03 mg/kg oral gavage, 150 minutes after glucose
  Blood Glucose: 10.75 ± 1.1 mmol/L
[1]; 0.1 mg/kg oral gavage, 0 minutes after glucose (2 g/kg)
  Blood Glucose: 9.28 ± 2.89 mmol/L
[1]; 0.1 mg/kg oral gavage, 15 minutes after glucose
  Blood Glucose: 17.65 ± 2.09 mmol/L
[1]; 0.1 mg/kg oral gavage, 30 minutes after glucose
  Blood Glucose: 18.67 ± 4.11 mmol/L
[1]; 0.1 mg/kg oral gavage, 60 minutes after glucose
  Blood Glucose: 13.53 ± 3.03 mmol/L
[1]; 0.1 mg/kg oral gavage, 90 minutes after glucose
  Blood Glucose: 10.27 ± 1.68 mmol/L
[1]; 0.1 mg/kg oral gavage, 120 minutes after glucose
  Blood Glucose: 10.05 ± 1.47 mmol/L
[1]; 0.1 mg/kg oral gavage, 150 minutes after glucose
  Blood Glucose: 10.17 ± 1.68 mmol/L
[1]; 0.6 mg/kg oral gavage, 0 minutes after glucose (2 g/kg)
  Blood Glucose: 9.57 ± 2.06 mmol/L
[1]; 0.6 mg/kg oral gavage, 15 minutes after glucose
  Blood Glucose (mmol/L): 16.48± 2.15** * mmol/L
[1]; 0.6 mg/kg oral gavage, 30 minutes after glucose
  Blood Glucose: 12.97 ± 3.71 mmol/L
[1]; 0.6 mg/kg oral gavage, 60 minutes after glucose
  Blood Glucose: 11.98 ± 2.95 mmol/L
[1]; 0.6 mg/kg oral gavage, 90 minutes after glucose
  Blood Glucose: 11.27 ± 2.66 mmol/L
[1]; 0.6 mg/kg oral gavage, 120 minutes after glucose
  Blood Glucose: 9.12 ± 2.14 mmol/L
[1]; 0.6 mg/kg oral gavage, 150 minutes after glucose
  Blood Glucose: 9.52 ± 1.62 mmol/L
[1]; 3 mg/kg oral gavage, 0 minutes after glucose (2 g/kg)
  Blood Glucose: 13.02 ± 2.46 mmol/L
[1]; 3 mg/kg oral gavage, 15 minutes after glucose
  Blood Glucose: 17.22 ± 2.02 mmol/L
[1]; 3 mg/kg oral gavage, 30 minutes after glucose
  Blood Glucose: 14 ± 3.49 mmol/L
[1]; 3 mg/kg oral gavage, 60 minutes after glucose
  Blood Glucose: 10.52 ± 2.23 mmol/L
[1]; 3 mg/kg oral gavage, 90 minutes after glucose
  Blood Glucose: 9.88 ± 0.85 mmol/L
[1]; 3 mg/kg oral gavage, 120 minutes after glucose
  Blood Glucose: 8.3 ± 1.63 mmol/L
[1]; 3 mg/kg oral gavage, 150 minutes after glucose
  Blood Glucose (mmol/L): 7.37±1.44* * mmol/L
[1]; blood glucose AUC, 0.03 mg/kg oral gavage
  AUC0-150 min: 2194 ± 132.70 mmol·min
[1]; blood glucose AUC, 0.1 mg/kg oral gavage, 0.1 mg/kg
  AUC0-150 min (mmol*min): significantly reduced
[1]; blood glucose AUC, 0.6 mg/kg oral gavage, 0.6 mg/kg
  AUC0-150 min (mmol*min): 1725± 119.90 **** mmol*min
[1]; blood glucose AUC, 0.6 mg/kg oral gavage, listed as compound 169, 0.6 mg/kg
  AUC0-150 min (mmol*min): significantly reduced
[1]; blood glucose AUC, 3 mg/kg oral gavage, 3 mg/kg
  AUC0-150 min (mmol*min): 1642±91.83 **** mmol*min
[1]; blood glucose AUC, 3 mg/kg oral gavage, listed as compound 169, 3 mg/kg
  AUC0-150 min (mmol*min): significantly reduced
[2]; 3 mg/kg oral, 0 minutes after administration
  Blood Glucose: 4.3 ± 0.59 mmol/L
[2]; 3 mg/kg oral, 30 minutes after administration
  Blood Glucose: 5.42 ± 0.56 mmol/L
[2]; 3 mg/kg oral, 60 minutes after administration
  Blood Glucose: 4.73 ± 0.82 mmol/L
[2]; 3 mg/kg oral, 120 minutes after administration
  Blood Glucose: 4.1 ± 0.51 mmol/L
[2]; 10 mg/kg oral, 0 minutes after administration
  Blood Glucose: 4.65 ± 0.75 mmol/L
[2]; 10 mg/kg oral, 30 minutes after administration
  Blood Glucose: 6.1 ± 1.01 mmol/L
[2]; 10 mg/kg oral, 60 minutes after administration
  Blood Glucose: 4.92 ± 1.01 mmol/L
[2]; 10 mg/kg oral, 120 minutes after administration
  Blood Glucose: 4 ± 0.87 mmol/L
[2]; 3 mg/kg oral
  AUC 0-120 minutes: 563 ± 34.91 mmol·min
[2]; 10 mg/kg oral
  AUC 0-120 minutes: 594 ± 49.00 mmol·min
[2]; judged from AUC0-120 min versus blank control, Glibenclamide 10 mg/kg, compound 169 at 3 mg/kg and 10 mg/kg
  risk of hypoglycemia: no risk of hypoglycemia
